Test results from patent US20160228444A1, “NUCLEOSIDE ANALOGS AND USES THEREOF” (Ramot at Tel-Aviv University Ltd., priority 2015, published 2016).
Structures can show the parent of a compound that is named as a salt. Where two headings read alike, the source gives them in different places.

Key:
[1] = tested on: U251 human glioblastoma xenograft; assay: Glioblastoma xenograft model (survival, body weight, tumor volume, tumor weight, Ki-67)
Protocol: Xenograft of glioblastoma: 8- to 10-week-old male Hsd athymic FOXN (Harlan, Jerusalem, Israel) were inoculated sc in the flanks with 5×10^6 U251 cells. Tumor length (L) and width (W) were measured with a caliper twice weekly. Tumor volumes were calculated according to the formula: (L×W2)/2. When the tumor was established (volume of 50-100 mm^3) the mice were randomly divided into six groups treated with: vehicle control (saline); ip Dox 4 mg/kg once weekly; po AN446 25 mg/kg thrice a week; po AN7 50 mg/kg thrice a week; combination of AN446+Dox (4 mg/kg ip Dox once a week and 25 mg/kg po AN446 thrice a week); AN7+Dox (4 mg/kg ip Dox once a week and 50 mg/kg po AN7 thrice weekly). Untreated, non-bearing tumor naive mice were maintained under the same conditions. The experiment was terminated after 25 treatment days, the mice were sacrificed under CO2 and their tumors and hearts were removed, weighed and divided into parts dedicated for immunohistochemistry (IHC) and the rest were frozen (−80° C.) for Western blot and Quantitative PCR (qRT-PCR) analyses.
Inactivation of avidin-biotin nonspecific binding was prevented by a blocking kit, according to the manufacturer's protocol (Vector Laboratories). […] The secondary antibody was biotin conjugated goat anti-rabbit or anti-mouse IgG. Slides were then stained with the ABC peroxidase system, developed with diaminobenzidine (DAB) (Vector Laboratories) and counterstained with hematoxylin (Bio-Optica, Milano, Italy). The slides were examined using an Olympus BX 52 light microscope, and images were taken with an Olympus DP50 digital camera system.
Mice were implanted subcutaneously with U251 cells and when the tumors reached 50-100 mm^3 treatments were initiated. Survival was evaluated by the Kaplan-Meier end-product analysis, where treatment failure (the experimental end points) was a loss of ˜20% body weight, or a tumor volume of >1 cm^3.

[2] = tested on: PBL; assay: Median-effect drug interaction, MTT viability, 72 h; type: cell-based; conditions: Homo sapiens
Protocol: (§1) Cell viability was determined by an MTT cell viability assay after 48 hours. MyLa cells (10^4 cells/well), Hut78 cells (5×10^3 cells/well) and normal PBLs (10^5 cells/well) were seeded in 96 well-plates. The PBLs were activated with 40 μg/10^6 cells of phytohemagglutinine (PHA) for 24 h before the experiment.
(§2) The ratios of the drug combination were based on the ratio of their IC50 of each drug alone. Cell viability was determined by MTT assay, as described hereinabove. The drugs were added to the cells and incubated for 72 h.

[3] = tested on: T47D cells; assay: Median-effect drug interaction, Hoechst viability, 72 h; type: cell-based, human
Protocol: as §2
(§3) Drug interaction in adherent cells was evaluated as above except that the viability was determined by Hoechst assay.

[4] = tested on: MDA-231 cells; assay: as above; type: cell-based, human; conditions: Homo sapiens
Protocol: as §2, §3

[5] = tested on: NCI-N87 gastric carcinoma cells; assay: as above; type: cell-based, human; conditions: Homo sapiens
Protocol: as §2, §3

[6] = tested on: TNF-α; assay: Serum TNF-α in U251 xenograft mice (ELISA); type: in vivo; conditions: single agent, FIG. 8C
Protocol: (§4) AN446 was tested in vivo using a xenograft of glioblastoma (U251 cells) in mice.

[7] = tested on: bFGF; assay: bFGF protein and mRNA in tumor and heart of xenograft mice (Western blot, qRT-PCR); type: in vivo; conditions: single agent
Protocol: (§5) Tumors and hearts of the mice were rapidly removed, frozen on dry ice and kept at −70° C. Tissue was then homogenized and RNA and proteins extracted using the NucleoSpin® RNA/Protein kit according to the manufacturer's protocol (Macherey-Nagel, GmbH & Co KG).
(§6) Total RNA ([…]) was primed by oligo dT and reverse-transcribed by Verso cDNA kit according to the manufacturer's protocol (Thermo Scientific). Analyses of qPCR were performed with Kapa Sybr® Fast (Kapa Biosystems) on a Step One Plus thermocycler (Applied Biosystems). The comparative threshold method was used to calculate the relative gene expression. Values were normalized against glyceraldehyde 3-phosphate dehydrogenase (GAPDH). Expression of the GAPDH mRNA in each individual sample was used to normalize the dataset. The sequences of the primers were as follows: […]
(§7) Protein levels in the samples were determined with the BCA protein assay kit (Pierce). The samples were subjected to Western blot analyses. The expression of proteins was visualized using their specified primary antibodies followed by the secondary IgG IRDye® 680DX antibody. Each detected band was quantified using the Odyssey Infrared Imaging System (LI-COR Biosciences) and normalized to the level of actin. The fold increase of a specific protein was determined by the ratio of the band intensity obtained from treated and untreated samples.
(§8) The pro-angiogenic factors basic fibroblast growth factor (bFGF) and vascular endothelial growth factor (VEGF) are potent angiogenic stimulators. The expression of bFGF in the tumor and in the heart was evaluated by Western blot and qRT-PCR analyses and expression of VEGF by IHC.

[8] = tested on: fibrous collagen; assay: Fibrosis in tumor, heart and kidney of U251 xenograft mice (Picrosirius Red / Fast Green); type: in vivo; conditions: single agent
Protocol: as §4

[9] = tested on: VEGF; assay: VEGF immunohistochemistry in tumor and heart of xenograft mice; type: in vivo; conditions: FIG. 4F
Protocol: as §8

[10] = tested on: HO-1; assay: HO-1 protein and mRNA in tumor and heart of xenograft mice (Western blot, qRT-PCR); type: in vivo; conditions: single agent
Protocol: as §5, §6, §7
The effect of the drugs on the expression of genes associated with cell survival and death was examined by following changes in transcription and protein expression in tissue samples taken from the mice with glioblastoma xenografts. Heme oxygenase (HO-1) is known to play a protective role in the heart, whereas, in many cancers it is expressed and promotes growth and survival of neoplastic cells.

[11] = tested on: HUT-78 CTCL cells; assay: Median-effect drug interaction, MTT viability, 72 h; type: cell-based, human
Protocol: as §1, §2

[12] = tested on: U251 MG human glioma cells; assay: FACS viability, annexin V-FITC / PI; type: cell-based; conditions: AN446 24 h; 200 nM Dox 5 h; combination compared to Dox alone; FIG. 1C
Protocol: (§9) Cell viability by flow cytometry analysis (FACS) analysis was determined using the Mebcyto apoptosis kit (MBL-Japan). The cell lines 4T1, U251 (2×10^5 cells/well), astrocytes and the cardiomyoblastic cell line H9C2 (5×10^5 cells/well) were seeded in six-well plates. Following treatment they were trypsinized, washed with PBS, resuspended in […] of binding buffer and double-stained with annexin V-FITC and propidium iodide (PI) according to the manufacturer's instructions. The stained cells were subjected to FACS analyses (Calibur cytometer, Becton Dickinson) where 30,000 cells were allowed to flow for each determination point and the percentage of cells in each state (viability or death) was defined by their distribution in fluorescence dot-plots using WinMdi 2.8 software (Scripps Research Institute, La-Jolla, USA).
(§10) The apoptotic effect of AN446, Dox and their combination was evaluated in U251 and 4T1 cancer cells, and in the non-cancerous rat cardiomyoblast cell line (H9C2) and in primary rat astrocytes, using procedures previously described for AN7 [Tarasenko et al., Invest New Drugs 2012, 30:130-143].

[13] = tested on: murine mammary carcinoma 4T1; assay: FACS viability, annexin V-FITC / PI; type: cell-based; conditions: AN446 24 h; 200 nM Dox 5 h; combination compared to Dox alone; FIG. 1C
Protocol: as §9, §10

[14] = tested on: c-Myc; assay: c-Myc and p-c-Myc (Thr 58) Western blot in tumor and heart of xenograft mice; type: in vivo
Protocol: as §7
The c-Myc protein is an important regulator of normal cell physiology and in tumor cells it plays an important role in activating oncogenic pathways [Soucek & Evan, Curr Opin Genet Dev 2010, 20:91-95].

SMILES: COc1cccc2c1C(=O)c1c(O)c3c(c(O)c1C2=O)C[C@@](O)(C(=O)CO)C[C@@H]3O[C@H]1C[C@H](N)[C@H](O)[C@H](C)O1 [Dox, Doxorubicin hydrochloride]
- body weight ([1]; Dox 4 mg/kg ip once a week, from day 13): drastic decrease in body weight
- treatment failure ([1]; Dox 4 mg/kg ip once a week, weight loss contributing): 60%
- Ki-67 positive cells in tumors ([1]; single agent vs vehicle, FIGS. 3E, 3F): considerably more Ki-67 positive cells were detected in tumors of the vehicle-treated mice
- survival of mice until end of experiment (day 25) ([1]; single agent: AN446 25 mg/kg or AN7 50 mg/kg po thrice weekly, Dox 4 mg/kg ip once a week, FIG. 3A): 40%
- IC50 ([2]; Dox in combination with AN446, read-out: Dox com IC50): 15 nM
- IC50 ([2]; Dox in combination with SAHA, read-out: Dox com IC50): 20 nM
- IC50 ([2]; single agent, read-out: Dox IC50): 70 nM
- IC50 ([3]; Homo sapiens, Dox in combination with AN446, read-out: Dox com IC50): 7.6 nM
- IC50 ([3]; Homo sapiens, Dox in combination with SAHA, read-out: Dox com IC50): 5.2 nM
- IC50 ([3]; Homo sapiens, single agent, read-out: Dox IC50): 19 nM
- IC50 ([3]; single agent, hydrochloride, read-out: Dox IC50): 19.1 nM
- IC50 ([4]; MDA-MB-231, MDA-231, Dox in combination with AN446, read-out: Dox com IC50): 5.3 nM
- IC50 ([4]; MDA-MB-231, MDA-231, Dox in combination with SAHA, read-out: Dox com IC50): 4.3 nM
- IC50 ([4]; MDA-MB-231, MDA-231, single agent, read-out: Dox IC50): 10.2 nM
- IC50 ([5]; NCI-N87, NCI-N87, Dox in combination with AN446, read-out: Dox com IC50): 8.5 ± 1 nM
- IC50 ([5]; NCI-N87, NCI-N87, single agent, read-out: Dox IC50): 30 ± 1.3 nM
- serum levels of TNF-α [6]: increased serum levels of TNF-α
- expression of mouse bFGF protein in the heart ([7]; heart, FIG. 4D): decreased significantly
- bFGF mRNA in the tumor ([7]; tumor, FIG. 6): significantly reduced the bFGF mRNA
- expression of bFGF in tumors ([7]; tumor, FIGS. 4A, 4B): decreased significantly
- fibrosis in the heart ([8]; heart, FIGS. 8A-8C): induced fibrosis
- fibrosis in the kidneys ([8]; kidneys, FIG. 8A): induced fibrosis
- fibrosis in the tumor ([8]; tumor, FIG. 8A): reduced fibrosis
- VEGF expression in the heart [9]: reduced
- HO-1 mRNA in the heart ([10]; heart): decreased HO-1 mRNA
- HO-1 expression in the heart (decrease) ([10]; heart, FIGS. 4D, 4E): ~5 fold
- tumor HO-1 protein expression (decrease) ([10]; tumor, FIGS. 4A, 4B): unchanged
- IC50 ([11]; HUT-78, single agent, hydrochloride, read-out: Dox IC50): 31 nM
- IC50 ([11]; Homo sapiens, HuT78, HUT-78, Dox in combination with AN446, read-out: Dox com IC50): 11 nM
- IC50 ([11]; Homo sapiens, HuT78, HUT-78, Dox in combination with SAHA, read-out: Dox com IC50): 12 nM
- IC50 ([11]; Homo sapiens, HuT78, HUT-78, single agent, read-out: Dox IC50): 30.8 nM
- viability / mortality of U251 cells [12]: significantly reduced the viability
- viability / mortality of 4T1 cells [13]: significantly reduced the viability
- c-Myc protein expression in the hearts ([14]; heart, FIG. 5B): repressed
- c-Myc protein expression in tumors ([14]; tumor, FIG. 5A): unaffected
